These are literature values, as cited in publication PMC10482975 (Nature Communications, 2023).

For this data set, the target named is M2 mAChR. The note with it: read-out: predicted affinity for allosteric binding; cited from earlier work.

pKd: −log10 of the molar value.

In the case of `C[N+](C)(C)CC#CCN1CCCC1=O` [oxotremorine-M], the pKd was less than 3.00.
